“Also recorded” adds a separate entry of the source. Blank lines part the entries; values can stand above or below the compound they belong to.
How the values were obtained:
[1] = Photophysical properties (absorption, emission, extinction coefficient, quantum yield); assay type: physicochemical
Description: n-Butyllithium in hexanes was purchased from Acros and titrated with diphenylacetic acid, which was recrystallized from toluene. All other reagents were purchased from Sigma Aldrich and used without further purification. Solvents were purchased from either Sigma Aldrich or Fisher Scientific. Anhydrous solvents were purchased from Fisher Scientific and dried by passing through an alumina column of a solvent purification system. Silica gel (230-400 mesh) used for column chromatography was purchased from Silicycle. Thin layer chromatography plates (250 μm thickness) were purchased from Sorbent Technologies. Revered-phase column chromatography was done using a RediSep Rf Gold C18 column on a Teledyne Isco CombiFlash Rf system. High-performance liquid chromatography (HPLC) was performed on a Jasco HPLC system using a Phenomenex column (Luna 5u C18(2) 100A; 250×4.60 mm, 5 micron). UV absorption spectra were obtained on a Jasco V-650 spectrophotometer using a 1 cm path length quartz cuvette. Fluorescence emission spectra were taken on a Horiba Jobin-Yvon FluoroLog using a 1 cm path length fluorescence quartz cuvette. ^1H-NMR and ^13C-NMR were recorded on either a Bruker DMX 500 (500 MHz) or a Bruker AVII 500 (500 MHz). High-resolution mass spectrometry was performed using a Waters LCT Premier XE Mass Spectrometer (model KE 332). […] was performed using a Bruker APEX2-DUO CCD X-ray Diffractometer. Photoreactions were carried out in a Rayonet Photochemical Reactor (model RPR-100). Quantum yield was determined by serial dilution method using coumarine 153 (in ethanol, Φ=0.38) and fluorescein (in NaOH 0.1 M, Φ=0.95) as standards (Yvon, A guide to recording Fluorescence Quantum Yields, http://www.horiba.com/fileadmin/uploads/Scientific/Documents/Fluorescence/quantumyie ldstrad.pdf, accessed Jul. 13, 2014; Brouwer, 2011, Pure Appl. Chem. 83: 2213-2228)

[2] = system: mito-GFP cell line (GFP localized to the outer mitochondria membrane); experiment: Colocalization with GFP-labeled mitochondria in mito-GFP HeLa cells; assay type: cell-based
Experimental: For live cell imaging, HeLa cells and HeLa cells expressing a mitochondrial outer membrane targeting domain from Listeria monocytogenes (ActA, C-terminal 47 amino acids) fused to a HaloTag-GFP construct (Ballister et al., 2014, Nat. Commun. 5: 4575) were used. Cells were cultured in a 60 mm culture dish using Life Technologies Dulbecco's Modified Eagle Medium (DMEM) media with phenol red, 10% Fetal Bovine Serum and 1% penicillin-streptomycin at 37° C. in a humidified atmosphere with 5% CO2. The cells were detached with 0.05% trypsin-EDTA and transferred to a 35 mm glass bottom poly-D-lysine coated dish 2-5 days before imaging with about 2 mL of the above-mentioned media. A 5 mM solution of 11-E/11-Z in MiliQ water and a 1 mM solution of MitoTracker Red FM in DMSO were prepared. Two microliter of each solution was mixed with 2 mL new media and added to the cells after the old media was removed. After incubation (3 hours to overnight for 11-E/11-Z and 1 hour for MitoTracker Red FM), the excess dyes were washed twice with non-phenol red DMEM before imaging. The cells were kept in 2 mL non-phenol red DMEM during imaging.
A Leica TCS SP8 confocal microscope equipped with a 63×/1.4 NA oil immersion objective lens was used in FIG. 2A, 3E, S2, S3, and S4. To selectively observe 11-E/11-Z, the excitation wavelength of 405 nm and the emission wavelength range of 620-650 were used. To selectively observe MitoTracker Red FM, the excitation wavelength of 638 nm and the emission wavelength range of 650-700 were used. To selectively observe GFP, the excitation wavelength of 488 nm and the emission wavelength range of 500-550 were used.
Photoproduct 12 is red-shifted in both absorbance and emission by approximately 100 nm while retaining a large Stokes shift of 108 nm (FIG. 44C). […]
Incubating mito-GFP cells with 11-E/11-Z allowed colocalization to be assessed (FIGS. 45A and 54).

[3] = system: HeLa cells; experiment: Intracellular photoactivation of 11-E/11-Z to 12 in live HeLa cells; assay type: cell-based; settings: 200 alternating 150 ms pulses, one phase exponential fit
Description: A Leica DM4000 spinning disk confocal microscope equipped with a 100×1.4 NA oil immersion objective was used in FIGS. 3A and 3B. In FIG. 3A, two channels were used. The first channel has 444 nm excitation wavelength and 525 nm emission wavelength (emission bandpass filter, bandwidth=36 nm). The second channel has 488 nm excitation wavelength and 632 nm emission wavelength (emission bandpass filter, bandwidth=60 nm). The two channels were used alternatingly to carry out 200 150-ms pulses. In FIG. 46B, selective activation was carried out by short pulse (about 1 second) using a 405 nm laser (CrystaLaser, DL405-050-O) controlled by the iLas2 module in Metamorph. All image processing was done using ImageJ. All curve fitting was done using Prism.
By combining the observed photoreaction (FIG. 44A) and the ability to selectively label mitochondria for live cell imaging (FIG. 45A), intracellular photoactivation of 11-E/11-Z was attempted. The roughly 100 nm red-shifted absorbance and emission spectra of 12 compared to 11-E/11-Z allowed for selective excitation of individual species. […] A significant increase in the intensity of […] was achieved after 30 seconds, using 200 total scans (FIG. 46A, 46B). […] Immediately after the first activation, a bright signal was detected at the targeted region (box 1). […]

[4] = Stability of aqueous solution under ambient light (HPLC); assay type: physicochemical; settings: 1 mM in water, 25° C., 10 days
Experimental: The stability of 1 mM aqueous solution of 11-E/11-Z was assessed under ambient light conditions at 25° C. for 10 days. […] HPLC chromatograms of compounds 11-E/11-Z and 12 can be seen in FIGS. 57 and 58.

[5] = system: HeLa cells; experiment: Cytotoxicity studies, Alamar Blue cell viability; assay type: cell-based; settings: HeLa cells, 24, 48, and 72 hours; 5 μM 11-E/11-Z, 1 μM MitoTracker Red FM
Experimental: In a 96-well plate, HeLa cells were plated at 5,000 cells/well in culture media as described above (50 μL/well) and incubated at 37° C. in a humidified atmosphere with 5% CO2. After 24 hours, cells were treated with 11-E/11-Z (final concentration was 5 μM), MitoTracker Red FM (final concentration was 1 μM), and DMSO (vehicle control for MitoTracker). For wells treated with MitoTracker and DMSO, DMSO concentration was kept at 1%. Untreated cells were used as vehicle control for 11-E/11-Z. Final volumes were 100 μL/well. Cells were incubated at 37° C. in 5% CO2 for 24, 48, or 72 hours. Alamar Blue (10 μL) was added 2 hours prior to fluorescence measurement. Fluorescence was measured at 560 nm excitation and 590 nm emission. Vehicle control was taken as 100% cell viability.

[6] = system: HeLa cells; experiment: Confocal microscopy of stained live HeLa cells (subcellular localization, cell permeability); settings: confocal microscopy
Description: (§1) Confocal microscopy was done on a Yokogawa spinning disk inverted microscope with a 100× lens. Each batch of stained cells was imaged by exciting with a 488 nm laser while observing at 503-545 nm (the green overlay images), exciting with a 561 nm laser while observing at 583-650 nm (the red overlay images), and by DIC (the grey images) (FIG. 8).
(§2) A 444 nm excitation was required to image with compounds 2 and 3 (FIG. 18).

[7] = Variable temperature 1H-NMR of E/Z interconversion; assay type: physicochemical; settings: DMF-d7, coalescence at 45° C.
Description: A rapid and efficient synthesis of the desired photoactivatable probe starting with commercially available 2-cyanopyridine (FIG. 52). 2-cyanopyridine was elaborated to thioketone A using methods similar to those previously reported (Rarig et al., 2013, J. Am. Chem. Soc. 135: 9213-9219, which is incorporated by reference in its entirety for all purposes). Homocoupling of A, using copper powder in toluene under refluxing conditions, yielded 1,1′-diazaxanthilidene 10 as an interconverting mixture of E and Z isomers in 84% yield (FIG. 43). Methylation of 10 with dimethyl sulfate afforded the desired monomethylated product 11-E/11-Z in 96% yield. The overall yield of the probe from commercial starting materials after 6 steps was 24% (FIGS. 43 and 52). Single crystals of 10-E and 11-Z were obtained by slow evaporation from chloroform:methanol (1:1) and water, respectively. […] Variable temperature ^1H-NMR (J. Sandström, 1982, Dynamic NMR spectroscopy, Academic Press, London, New York) of 10-E/10-Z in deuterated N,N-dimethylformamide confirmed the dynamic interconversion of the E and Z isomers at room temperature.

[8] = system: mitochondria of HeLa cells; experiment: Co-staining with mitotracker red, Pearson colocalization correlation; assay type: cell-based
Experimental: Pearson correlations were done after co-staining with mitotracker or lysotracker to evaluate specificity.
Confirmation of the supposed lysosome and mitochondria staining was achieved by doing co-staining experiments with Lysotacker Red™ and Mitortracker Red™, respectively. A Pearson colocalization correlation (PCC) of 0.75 was determined from a costaining experiments in which HeLa cells were incubated with E/Z-2 and Lysotracker. The imperfect correlation is due to higher specificity for a subset of vesicles stained by the Lysotracker.

[9] = system: HeLa cells; experiment: One-hundred-time-point timelapse microscopy (photostability / resistance to photobleaching); assay type: cell-based
Experimental: One-hundred-time-point microscopy experiments were performed to evaluate photostability and/or resistance to photobleaching in comparison with the commercial dyes of lysotracker and mitotracker. […] For these experiments, each sample was pulsed 100 times for 300 ms and the maximum intensity of the image was tracked over time. […] Mitotracker was more robust than lysotracker, losing only 34% of its intensity over the 100 scans, while compound 3 lost only ˜13%. The most robust dye discovered thus far is monomethylated-3 (Me-3), which lost only ˜5% of its intensity over 100 scans.
This was determined via one-hundred-time-point timelapse microscopy experiments in which the […] intensity of the image was monitored over 100 laser pulses of 300 ms (FIG. 42).
To investigate photostability of 2 and 3, timelapse microscopy experiments were carried out.

[10] = system: HeLa cells
[11] = system: HeLa cells; remark: listed apart in the source
Description: as §1, §2

[12] = in ethanol; cited from earlier work

Stokes shift [1]: 135 nm
Abs λmax ([1]; in water): 408 nm
Em λmax ([1]; in water): 543 nm
extinction coefficient ε ([1]; solvent: water): 11040 M⁻¹ cm⁻¹
quantum yield Φ ([1]; solvent: water): 0.021
Compound: C[n+]1cccc2c1/C(=C1\c3ccccc3Oc3cccnc31)c1ccccc1O2 (racemic) [11-E/11-Z]
Manders' overlap coefficient (first) [2]: 0.98±0.01
Manders' overlap coefficient (second) [2]: 1.00±0.00
Spearman correlation with GFP ([2]; 80 cells): 0.88±0.02
rate constant, 444/525 channel [3]: 0.060 s⁻¹
rate constant, 488/632 channel [3]: 0.030 s⁻¹
stability of aqueous solution under ambient light [4]: No decomposition or photoproduct; also recorded: no evidence for decomposition or photoconversion
cytotoxicity [5]: very low cytotoxicity
staining specificity / subcellular localization [6]: consistent with mitochondrial uptake; also recorded: near exclusive mitochondrial localization

activation energy ΔG‡ of E/Z interconversion [7]: 65.7 kJ/mol
Compound: c1ccc2c(c1)Oc1cccnc1/C2=C1\c2ccccc2Oc2cccnc21 (racemic) [10-E/10-Z, 1,1′-diazaxanthilidene]

Compound: c1cc2oc3cnccc3c3c2c(c1)c1cccc2oc4cnccc4c3c21 [Compound 3, 9,14-diaza-benzo[1,2,3-kl:6,5,4-k′l′]dixanthene]
Pearson correlation with mitotracker red [8]: 0.75
loss of intensity over 100 scans ([9]; 100 pulses of 300 ms, maximum intensity of the image tracked): ~13%
decrease in intensity after 100 scans ([9]; 300 ms/scan, HeLa cells): only a slight decrease in intensity
toxicity to HeLa cells [10]: non-toxic

Compound: C[n+]1ccc2c(c1)oc1cccc3c4cccc5oc6c[n+](C)ccc6c(c54)c2c13 [DiMe-3, 9,14-dimethyl-9,14-diaza-benzo[1,2,3-kl:6,5,4-k′l′]dixanthene]
cell permeability [11]: cell permeable
toxicity to HeLa cells [10]: non-toxic
staining specificity / subcellular localization [6]: staining lysosomes; also recorded: specific for punctuate organelles; also recorded: lysosomal subcellular specificity

Compound: O=c1cc(C(F)(F)F)c2cc3c4c(c2o1)CCCN4CCC3 [coumarine 153]
quantum yield Φ of standard [12]: 0.38

From patent US10487089B2, “Imaging agents and methods of identifying same” (The Trustees of the University of Pennsylvania, priority 2014, dated 2019)
